Measured values taken from patent publication EP4806900A2, “RAS INHIBITORS” (Revolution Medicines, Inc., priority 2019, dated 2021).
Like-named read-outs stand apart in the source and are kept apart here.

Key:
[1] = ester bond, EDCI/HOBt/DIPEA, DCM
SW1573 = conditions: Canon et al., Nature 575:217-223 (2019); cited from earlier work
[2] = tested on: NCI-H358 KRASG12C xenograft; experiment: In vivo NSCLC K-Ras G12C xenograft model (tumor growth); design: species or system BALB/c nude mice
NSCLC (KRAS G12C) model = experiment: NSCLC (KRAS G12C) xenograft model, combinations; type: in vivo, mice
[3] = single agents: Compound B 50 mg/kg intravenous twice weekly, cobimetinib […] daily oral

CO[C@@H](C)c1ncc(N2CCN(C(=O)OCc3ccccc3)CC2)cc1-c1c2c3cc(ccc3n1CC(F)(F)F)-c1cccc(c1)C[C@H](NC(=O)OC(C)(C)C)C(=O)N1CCC[C@H](N1)C(=O)OCC(C)(C)C2
ring closure, yield of all isomers ([1]; from CO[C@@H](C)c1ncc(N2CCN(C(=O)OCc3ccccc3)CC2)cc1-c1c(CC(C)(C)CO)c2cc(-c3cccc(C[C@H](NC(=O)OC(C)(C)C)C(=O)N4CCC[C@@H](C(=O)O)N4)c3)ccc2n1CC(F)(F)F, 9.87 mM, 25.0 °C, 12.0 h): 67.9%

CO[C@@H](C)c1ncccc1-c1c2c3cc(ccc3n1CC(F)(F)F)N1CCO[C@@H](C[C@H](NC(=O)OCc3ccccc3)C(=O)N3CCC[C@H](N3)C(=O)OCC(C)(C)C2)C1
ring closure, yield of all isomers ([1]; from CO[C@@H](C)c1ncccc1-c1c(CC(C)(C)CO)c2cc(N3CCO[C@@H](C[C@H](NC(=O)OCc4ccccc4)C(=O)N4CCC[C@@H](C(=O)O)N4)C3)ccc2n1CC(F)(F)F, 11.25 mM, 16.0 h): 74%

C=CC(=O)N1CCN(c2nc(=O)n(-c3c(C)ccnc3C(C)C)c3nc(-c4c(O)cccc4F)c(F)cc23)[C@@H](C)C1 [AMG510]
sensitivity of cell line (SW1573): insensitive

Cc1nc(N2CCC3(CC2)CO[C@@H](C)[C@H]3N)c(CO)nc1-c1cccc(Cl)c1Cl [RMC-4550]
mice with tumor regression (greater than 10% reduction of tumor volume at end of study) ([2]; single agents: Compound C 60 mg/kg intravenous once weekly, SHP2 inhibitor (RMC-4550) 30 mg/kg daily oral): 5 out of 10

O=C(c1ccc(F)c(F)c1Nc1ccc(I)cc1F)N1CC(O)([C@@H]2CCCCN2)C1 [cobimetinib]
effect on tumor growth [2, 3]: tumor growth inhibition | mice with tumor regression (greater than 10% reduction of tumor volume at end of study) [2, 3]: no tumor regressions | tumor response, single agent (FIG. 3A) (NSCLC (KRAS G12C) model; Compound B 50 mg/kg intermittent intravenous or cobimetinib […] daily oral, alone): tumor growth inhibition | tumor regressions at end of study, single agent group (FIG. 3B) (NSCLC (KRAS G12C) model; each single agent): no tumor regressions
